Assay results taken from patent publication US7815803B2, “Preparation of samples for LC-MS/MS using magnetic particles” (Roche Diagnostics Operations, Inc., priority 2007, dated 2010).

Key:
[1] = in vivo; cited from earlier work
[2] = in vitro; cited from earlier work
[3] = Pooled serum from itraconazole treated patients, LC-MS/MS validation; assay type: in vivo, human; details: n=9
Procedure: A validation protocol was performed in three independent analytical series. In each series a five-point calibration was performed using a commercially available calibration material for itraconazole measurement (2,000 μg/l, 1,000 μg/l, 500 μg/l, 250 μg/l, and 125 μg/l; Recipe, Munich, Germany). Aliquots of pooled serum from itraconazole treated patients were analyzed in triplicate in each series to calculate a total coefficient of variation (n=9). Commercially available quality control materials (ClinCheck, Recipe, Munich, Germany) in two concentration ranges (target concentrations 150 μg/l, and 2,900 μg/l) were analyzed in the three series.
Linear calibration lines (r>0.99) were obtained in all series. For the pooled serum a total coefficient of variation of 3.4% was observed (mean concentration 380 μg/l); all quality control samples were found within the predefined accepted ranges (±10% of the target concentrations).

| mean concentration in pooled serum [3] | Compound | therapeutic trough concentration [1] | potency relative to cyclosporin [2] |
| --- | --- | --- | --- |
| – | COc1c(C)c2c(c(O)c1C/C=C(\C)CCC(=O)OCCN1CCOCC1)C(=O)OC2 [Mycophenolate mofetil, mycophenolate mofetil] | 1000 to 3500 µg/L | – |
| – | CO[C@H]1C[C@@H]2CC[C@@H](C)[C@@](O)(O2)C(=O)C(=O)N2CCCC[C@H]2C(=O)O[C@H]([C@H](C)C[C@@H]2CC[C@@H](O)[C@H](OC)C2)CC(=O)[C@H](C)/C=C(\C)[C@@H](O)[C@@H](OC)C(=O)[C@H](C)C[C@H](C)/C=C/C=C/C=C/1C [Sirolimus, sirolimus] | 5 to 15 µg/L | – |
| – | C=CC[C@@H]1/C=C(\C)C[C@H](C)C[C@H](OC)[C@H]2O[C@@](O)(C(=O)C(=O)N3CCCC[C@H]3C(=O)O[C@H](/C(C)=C/[C@@H]3CC[C@@H](O)[C@H](OC)C3)[C@H](C)[C@@H](O)CC1=O)[C@H](C)C[C@@H]2OC [Tacrolimus, tacrolimus] | 5 to 20 µg/L | up to 100 times |
| 380 ng/mL | CCC(C)n1ncn(-c2ccc(N3CCN(c4ccc(OCC5COC(Cn6cncn6)(c6ccc(Cl)cc6Cl)O5)cc4)CC3)cc2)c1=O (centres unmarked) [itraconazole] | – | – |
